The values below come from patent publication US20130184310A1, “TREATMENT OF LUPUS ARTHRITIS USING LAQUINIMOD” (Teva Pharmaceutical Industries, Ltd., priority 2010, published 2013).

Data set [1] concerns (NZBxNZW)F1 mouse model of SLE. The settings on record: MTX 35 μg/mouse p.o. 3 times a week; for immune complex deposition (ICD) in kidney glomeruli: end of experiment (12 weeks) vs vehicle; for immune complex deposition (ICD) in kidney glomeruli / proteinuria (PU): laquinimod 25 mg/kg p.o. daily, CTX 25 mg/ig i.p. once weekly; for proteinuria (PU): week 12 observation vs vehicle (water).
Protocol: (NZBxNZW)F1 are lupus-prone mice that develop an SLE-like disease spontaneously including anti-dsDNA antibodies (Abs), proteinuria and Immune Complex Deposits (ICD).
In a number of studies, the effect of various doses of laquinimod in the (NZBxNZW)F1 model for SLE were assessed. The studies also included a negative control (water) and positive controls including cyclophosphamide (CTX) and methotrexate (MTX).
This study investigated the effect of laquinimod, an immunomodulator of SLE in a murine model of SLE and compared the treatment effect to reference substances CTX and MTX.
Laquinimod and reference compounds CTX and MTX were applied in therapeutic mode, starting the treatment at the time when the characteristic change of murine SLE model, proteinuria (PU) was present in >80% of animals, and the observation and treatment period following this was 12 weeks. Laquinimod was applied p.o. daily, in a dose of 25 mg/kg. CTX was applied once weekly in a dose of 25 mg/ig i.p. MTX was applied 3 times a week p.o. at 35 μg/mouse.
Also, body weight changes were recorded weekly and at the end of experiment both kidneys were preserved, one for possible conventional histology and one for immune complex detection *ICD) in glomeruli. Evaluation of ICD was performed by scoring and by image analysis.
80 animals were involved in the study.

For data set [2], the system named is MRL/lpr lupus mouse model. Put plainly: Non-GLP in vivo evaluation of laquinimod in the MRL/lpr lupus mouse model (Example 1.4). The settings on record: for kidney glomerulonephritis (histopathology) / salivary gland inflammation (histopathological scoring): laquinimod 5 mg/kg p.o., MMF 100 mg/kg p.o., compared to vehicle. Here is the method:
This study evaluates the efficacy of laquinimod in the MRL/lpr lupus mouse model.
Animals were monitored until their urine proteinuria reached >200 mg/dL at which time they were enrolled in the study. Animals were dosed with either 1 or 5 mg/kg of laquinimod, p.o., 100 mg/kg mycophenolate mofetil (MMF, CellCept®) p.o., or vehicle (water DDW), p.o., daily except weekends.
Proteinuria, ankle and paw diameters, dsDNA autoantibody levels and survival were monitored during in life portion of the study. At termination, blood samples were harvested for determination of dsDNA autoantibody levels, spleens were harvested and weighed then processed to isolate splenocytes which were counted. Kidney, lung, skin, lymph node, salivary gland and joints were harvested, processed for histological examination and scored by a histopathologist blind to the treatments.

Data set [3] deals with Systemic Lupus Erythematosus (SLE) patients with active lupus arthritis. Put plainly: Phase IIa randomized, double-blind, placebo-controlled clinical trial of laquinimod in lupus arthritis (Example 2). In kind it is in vivo, human. The settings on record: daily oral 0.5 mg or 1 mg. As for the experimental part: A multicenter, randomized, double-blind, placebo controlled clinical trial is conducted to evaluate the safety, tolerability, biomarkers and clinical effect of laquinimod (0.5 mg/day and 1 mg/day) in Systemic Lupus Erythematosus (SLE) patients with active lupus arthritis.
Approximately 90 Systemic Lupus Erythematosus patients with active lupus arthritis are enrolled. (approximately 30 subjects per treatment arm). Drop-outs are not replaced.
The overall study duration is up to 20 weeks, with the screening period being up to 2 weeks, the treatment period being 12 weeks and the follow-up period being 4 weeks.
Capsules containing laquinimod 0.5 mg and/or matching placebo are administered orally once daily: • 1. Laquinimod 0.5 mg arm—1 capsule of laquinimod 0.5 mg and 1 matching placebo capsule. • 2. Laquinimod 1 mg arm—2 capsules of laquinimod 0.5 mg. • 3. Placebo arm—2 capsules of placebo.
This is a Phase IIa, randomized, double-blind, placebo-controlled, study to assess the safety, tolerability, pharmacokinetics, biomarkers and clinical effect of two doses of laquinimod in Systemic Lupus Erythematosus patients with active lupus arthritis. This study evaluates the safety, tolerability of two doses of laquinimod (0.5 mg and 1 mg/day) in Systemic Lupus Erythematosus patients with active lupus arthritis. This study also evaluates biomarkers and clinical effect of laquinimod (0.5 mg and 1 mg/day) in Systemic Lupus Erythematosus patients with active lupus arthritis.
Subjects are initially randomized in a 1:1 ratio into one of the following two treatment arms: • 1. Laquinimod 0.5 mg. • 2. Matching placebo.
Enrollment to the 1 mg laquinimod dose group is initiated following the approval of the study safety committee, based on data of at least 10 subjects who have completed at least 4 weeks of treatment. Upon approval, randomization into one of the following three treatment arms occurs in a ratio that allows for reaching an overall target enrollment of approximately 30 subjects per treatment arm. • 1. Laquinimod 0.5 mg. • 2. Laquinimod 1 mg. • 3. Matching placebo.
Scheduled in-clinic visits are conducted at screening, baseline and at weeks 2, 4, 8, 12 and 16.
Treatment with laquinimod/placebo is discontinued on visit week 12 and a follow-up/study completion visit is conducted at week 16. Subjects who early discontinued study drug prior to visit week 12 preferably attend a follow-up study completion visit within 4 weeks (28 days) of treatment termination visit.
During the study period the British Isles Lupus Assessment Group (BILAG) score, SLE Disease Activity Index (SLEDAI 2K), Swollen and Tender joint count, Patient Global Assessment score (PGA), Evaluator Global Assessment score (EGA) and Patient Pain assessment (PtP) are assessed in addition to routine safety laboratory and physical tests, PK analysis and disease related immunology tests/biomarkers.
Response Definitions • BILAG MSK response is defined as change from Musculoskeletal A or B at baseline to C or D at LOV. • BILAG Substantial Responder (SR) is defined as all systems at last observed value (LOV) are C or D/E providing at least one system is A or B at baseline. • SLEDAI 2K response—decrease in SLEDAI of at least 4 point compared to baseline • Medicinal/Interventional flare defined as any of the following • Steroid increase by at least 5 mg/day compared to previous dose or compared to baseline or any IV, IM or Intraarticular dose. • New continuous treatment (>3 days) or increase in dose of NSAIDs or COX2 inhibitors. • New treatment or dose increase with an immunosuppressive drug compared to previous dose or compared to baseline. • Treatment with biologic agents, IVIG or plasmapheresis. • New treatment or dose increase of antimalarial drugs compared to previous dose or compared to baseline.
Lupus Arthritis • 1. […]

For data set [4], the system named is (NZBxNZW)F1 mice. Put plainly: Survival dose response study of laquinimod in the (NZBxNZW)F1 model for SLE, 37 weeks (Example 1.2). In kind it is in vivo, mouse. Here is the method: This was a survival dose response study to determine whether laquinimod is effective in suppressing the symptoms in (NZBxNZW)F1 mice. The positive control used was Cytoxan.
Seventy-one mice having spontaneous disease developed by the age of 7 months (as measured by proteinuria) were divided into 6 experimental groups (Water, CTX, Laquinimod 0.2 mg/kg, Laquinimod 1.0 mg/kg, Laquinimod 5.0 mg/kg, Laquinimod 25.0 mg/kg) according to their PU scores.
Water and Laquinimod were administered orally (200 μl/mouse) 5 days a week. CTX was administered intraperitonealy once weekly, (200 μl/mouse). Blood samples were collected on weeks 1, 5, 15 and 37. Serum samples were prepared for detection of anti-dsDNA antibodies. After 37 weeks (257 days) of treatment, mice were sacrificed.

Data set [5] deals with (NZBxNZW)F1 mice. Put plainly: Confirmation of efficacy of laquinimod in the (NZBxNZW)F1 model for SLE, 13 weeks (Example 1.3). The data set is classed as in vivo, mouse. As for the experimental part:
This study examined the effect of laquinimod (0.2 and 5 mg/kg) versus CTX and vehicle treated (NZBxNZZW)F1 mice. Seventy mice having spontaneous disease developed by the age of 7 months (as measured by proteinuria) were divided into 4 experimental groups (Water, CTX, Laquinimod 0.2 mg/kg, Laquinimod 5.0 mg/kg,) according to their PU scores. Water and Laquinimod were administered orally (200 μl/mouse) 5 days a week. CTX was administered intraperitonealy once weekly, (200 μl/mouse). Blood samples were collected on weeks 1, 5, and 11. Serum samples were prepared for detection of anti-dsDNA antibodies. After 13 weeks of treatment, mice were sacrificed and immune complex deposits in their kidneys were evaluated.

[6] abbreviates: study period, compared to placebo.
Where [7] appears, read: laquinimod low dose 0.2 mg/kg orally 5 days a week.
[8] abbreviates: laquinimod 5 mg/kg p.o. compared to vehicle.

For the compound `O=P1(N(CCCl)CCCl)NCCCO1` (stereo not drawn) [CTX, cyclophosphamide], in data set [1], the “immune complex deposition (ICD) in kidney glomeruli” value (“immune complex deposition (ICD)” below) is recorded as “significantly inhibited” and the “proteinuria (PU)” value is “significantly diminished the proteinuria”.
Consider `COc1c(C)c2c(c(O)c1C/C=C(\C)CCC(=O)OCCN1CCOCC1)C(=O)OC2` [MMF, mycophenolate mofetil, reference compound], for which the “lung BALT hyperplasia (histopathology)” value in data set [2] (MMF 100 mg/kg p.o. vs vehicle) is “significant difference”. In data set [2], the “kidney glomerulonephritis (histopathology)” value is recorded as “significant reductions” and the “salivary gland inflammation (histopathological scoring)” value was “significant reduction”.
Take `CN(Cc1cnc2nc(N)nc(N)c2n1)c1ccc(C(=O)N[C@@H](CCC(=O)O)C(=O)O)cc1` [MTX, methotrexate]: in data set [1] (12 week treatment period, 80 animals in study), the “animals died during the treatment period” value was determined as 2. In data set [1], the “immune complex deposition (ICD)” value was “failed to inhibit the symptoms” and the “proteinuria (PU)” value is recorded as “failed to inhibit the symptoms”.
In the case of `CCN(C(=O)c1c(O)c2c(Cl)cccc2n(C)c1=O)c1ccccc1` [laquinimod], in data set [1], the “immune complex deposition (ICD)” value is on record as “significantly inhibited” and the “proteinuria (PU)” value is “significantly diminished the proteinuria”. In addition, in data set [3] (compared to placebo), the tolerability result was “well tolerated” and the toxicity entry is given as “no toxicity”. Further, in data set [3] (study period), the “66 swollen/68 tender joint count (JC66/68)” value was “reduces”, the “C-Reactive Protein level” value is recorded as “lowers”, the “Disease Activity Score using 28 joint counts (DAS28)” value is “reduces” and the anti-dsDNA level entry was “lowers”. Further, in data set [3] (study period), the “physician global assessment (PGA) score” value is listed as “reduces”, the serum chemokine level entry is on record as “lowers” and the serum cytokine level result is given as “lowers”. In data set [3] (setting [6]), the “BILAG MSK response” value is on record as “improves”, the BILAG score result was “improves”, the swollen joint count result was “reduces” and the tender joint count entry is listed as “reduces”. Moreover, the progression of proteinuria entry in the data set on (NZBxNZW)F1 mice [4] (all doses of laquinimod (0.2, 1.0, 5.0, 25.0 mg/kg) orally 5 days a week, in comparison to vehicle) is “abrogated the progression of proteinuria”. The survival entry with (NZBxNZW)F1 mice [4] (all doses of laquinimod (0.2-25 mg/kg), 37 weeks of treatment) is on record as “significant prolongation of survival”. Further, in the data set on (NZBxNZW)F1 mice [4] (laquinimod dose of 0.2 mg/kg orally 5 days a week), the proteinuria entry is “abrogated proteinuria but not to the same extent as compared to the higher doses”. Also, the “proteinuria, compared with positive control CTX” value with (NZBxNZW)F1 mice [4] (laquinimod doses of 1, 5 and 25 mg/kg orally 5 days a week) is recorded as “as effective as the positive control cyclophosphamide (CTX)”. The anti-dsDNA levels result in the data set with (NZBxNZW)F1 mice [4] (serum, weeks 1, 5, 15 and 37, laquinimod 0.2-25 mg/kg) is listed as “dose dependent reduction in antibody levels over time”. The anti-dsDNA levels entry with (NZBxNZW)F1 mice [5] (laquinimod 5 mg/kg orally 5 days a week) is recorded as “behaved similarly to the positive control CTX”. Further, the “immune complex deposits in kidneys” value in the data set with (NZBxNZW)F1 mice [5] (laquinimod 5 mg/kg orally 5 days a week, after 13 weeks) is recorded as “behaved similarly to the positive control CTX”. Also, in the data set with (NZBxNZW)F1 mice [5] (laquinimod 0.2 and 5 mg/kg orally 5 days a week, 13 weeks), the “disease progression as measured by proteinuria” value is on record as “abrogated disease progression”. Besides, in the data set with (NZBxNZW)F1 mice [5] (setting [7]), the “anti-dsDNA Ab titers” value was “did not inhibit” and the proteinuria entry is listed as “prevented increased proteinuria”. The “ICD (immune complex deposits)” value with (NZBxNZW)F1 mice [5] (laquinimod low dose 0.2 mg/kg orally 5 days a week, after 13 weeks) is “did not inhibit”. In addition, in data set [2] (both doses of laquinimod (1 and 5 mg/kg p.o.) compared to vehicle), the “bone resorption (joint histopathology)” value was “Significant reductions”. Besides, in data set [2] (laquinimod 5 mg/kg compared with 1 mg/kg), the “salivary gland inflammation score, higher dose vs lower dose” value is “significantly lower score”. Also, in data set [2] (setting [8]), the “cartilage damage (joint histopathology)” value is on record as “significant reduction”, the “joint inflammation (histopathology)” value is given as “significantly reduced” and the “splenocytes as percent of total spleen cells” value is given as “significant reduction”. In data set [2], the “kidney glomerulonephritis (histopathology)” value is on record as “significant reductions” and the “salivary gland inflammation (histopathological scoring)” value is “significant reduction”. In addition, the “measures during the in life phase (proteinuria, ankle and paw diameters, dsDNA autoantibody levels, survival)” value in data set [2] (laquinimod 1 or 5 mg/kg p.o., trends not significant except for some sporadic time points) was “trend toward dose dependent efficacy”.
